Article PMC11126936, “Reactivating Hippo by drug compounds to suppress gastric cancer and enhance chemotherapy sensitivity” (The Journal of Biological Chemistry, 2024)
Where “and” joins values, the source holds several entries; their conditions need not be identical. Equal entries are not always repeated. Where two headings read alike, the source gives them in different places. One block for each molecule: values may come before it.

How the values were obtained:
[1] = test system: HGC-27 cells; experiment: Cell viability assay in HGC-27 cells; assay type: cell-based, human
[2] = test system: AGS cells xenograft; experiment: AGS xenograft tumor model; settings: intratumoral injection, five consecutive days, vs control
[3] = test system: MKN-28 cells; experiment: Killing efficiency in MKN-28 cells; assay type: cell-based, human; settings: nontoxic concentrations, alone or combined
[4] = test system: 11 different GC cells; experiment: Cisplatin cell viability in 11 GC cell lines; settings: read-out: IC50, cisplatin-sensitive GC cell lines; cell lines with higher pMST1/2 such as NUGC-4
[5] = test system: AGS cells; experiment: Killing efficiency in AGS cells; assay type: cell-based, human; settings: 0.05 μM DSF, 20 μM cisplatin, alone or combined
[6] = target: T1, STRN3–MST2 interaction (Homo sapiens, UniProt Q13188); experiment: MBP/GST pull-down and Co-IP, STRN3–MST2; assay type: binding
T1 construct: GST-tagged MST2 (amino acid 1–308), MBP-tagged MST2 (amino acid 1–308); made in house; host or cells: E. coli BL21 Codon plus (DE3)

[7] = test system: NUGC-4 cells; experiment: NUGC-4 cell viability, XMU-MP-1 with cisplatin; assay type: cell-based, human
[8] = target: T2, purified PP2Aa (8–589) (UniProt P30153 8-589); settings: both partners purified
T2 construct: As used in ITC and MST
T2 sequence (P30153 8-589): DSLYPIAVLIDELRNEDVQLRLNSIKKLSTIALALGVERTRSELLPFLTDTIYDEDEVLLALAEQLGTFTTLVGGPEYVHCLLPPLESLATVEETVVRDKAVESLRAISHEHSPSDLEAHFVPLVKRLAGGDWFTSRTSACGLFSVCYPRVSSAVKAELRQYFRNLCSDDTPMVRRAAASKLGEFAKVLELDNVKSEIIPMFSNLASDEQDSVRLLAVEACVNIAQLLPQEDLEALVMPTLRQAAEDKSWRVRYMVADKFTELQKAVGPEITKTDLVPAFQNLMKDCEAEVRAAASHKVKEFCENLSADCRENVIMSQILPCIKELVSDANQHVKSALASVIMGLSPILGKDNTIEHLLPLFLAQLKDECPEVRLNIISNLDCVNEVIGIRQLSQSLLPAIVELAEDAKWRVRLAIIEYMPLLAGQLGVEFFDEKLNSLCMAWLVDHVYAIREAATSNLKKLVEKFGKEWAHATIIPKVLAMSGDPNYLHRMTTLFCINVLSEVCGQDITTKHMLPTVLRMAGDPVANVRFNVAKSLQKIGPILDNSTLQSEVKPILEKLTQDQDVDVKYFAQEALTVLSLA

[9] = target: T2, purified PP2Aa (8–589); experiment: MST; Monolith NT.115, 25 °C, fluorescent-labeled protein; STRN3 to PP2Aa, also with DSF or TH added; settings: both partners purified
[10] = target: T3, purified MST2 recombinant protein (UniProt Q13188); experiment: MST; Monolith NT.115, 25 °C, fluorescent-labeled protein; STRN3 and MST2 without CX
T3 sequence (Q13188 1-491, species assumed, looked up): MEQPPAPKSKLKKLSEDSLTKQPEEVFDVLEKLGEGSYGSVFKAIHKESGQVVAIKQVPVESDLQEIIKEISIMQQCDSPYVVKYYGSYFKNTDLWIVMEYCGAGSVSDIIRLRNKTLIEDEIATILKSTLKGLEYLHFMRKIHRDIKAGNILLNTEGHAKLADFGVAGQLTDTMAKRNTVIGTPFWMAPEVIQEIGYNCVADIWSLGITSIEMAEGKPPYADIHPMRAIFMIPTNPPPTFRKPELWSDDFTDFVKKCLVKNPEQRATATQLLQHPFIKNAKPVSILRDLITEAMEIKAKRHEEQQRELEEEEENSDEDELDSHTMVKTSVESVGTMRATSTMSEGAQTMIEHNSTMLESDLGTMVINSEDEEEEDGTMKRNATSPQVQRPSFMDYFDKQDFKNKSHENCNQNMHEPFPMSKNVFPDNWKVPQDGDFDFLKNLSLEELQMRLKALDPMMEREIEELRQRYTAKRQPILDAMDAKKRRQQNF

[11] = target: T4, MBP-tagged MST2 (amino acid 1–308) (UniProt Q13188 1-308); settings: both partners purified
T4 construct: MST2 kinase, amino acid 1-308; also called MBP-MST2; source: E. coli BL21 Coden plus (DE3), purified (MBP beads, size-exclusion chromatography)
T4 sequence (looked up): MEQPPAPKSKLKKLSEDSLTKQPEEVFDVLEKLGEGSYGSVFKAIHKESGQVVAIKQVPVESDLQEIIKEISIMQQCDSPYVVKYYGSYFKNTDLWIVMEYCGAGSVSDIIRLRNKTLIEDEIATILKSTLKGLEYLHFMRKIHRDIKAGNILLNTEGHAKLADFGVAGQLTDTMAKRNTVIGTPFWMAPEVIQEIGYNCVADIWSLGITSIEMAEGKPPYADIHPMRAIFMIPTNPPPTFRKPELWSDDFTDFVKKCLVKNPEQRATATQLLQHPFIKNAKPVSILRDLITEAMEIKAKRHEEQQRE

[12] = target: T5, GST-tagged MST2 (amino acid 1–308) (UniProt Q13188 1-308); settings: both partners purified
T5 construct: MST2 kinase, amino acid 1-308; also called GST-MST2; source: E. coli BL21 Coden plus (DE3), purified (GST beads, size-exclusion chromatography)
T5 sequence (looked up): T4 sequence (looked up)

[13] = target: T6, MST2 (Homo sapiens, UniProt Q13188); experiment: MST assay, binding to MST2
T6 construct: made in house; host or cells: E. coli BL21 Codon plus (DE3)
T6 sequence (Q13188 1-491): T3 sequence (Q13188 1-491, species assumed, looked up)

[14] = cell viability, read-out: IC50 values in HGC-27 cells
[15] = Homo sapiens, HGC-27, cell viability, read-out: IC50 values in HGC-27 cells

Molecule: O=C([O-])c1ccccc1-c1c2cc(Br)c(=O)cc-2oc2[c]([Hg+])c([O-])c(Br)cc12.[Na+].[Na+].[OH-] [Merbromin]
IC50 [1, 14]: 15.2 µM

Molecule: Oc1cc2c(cc1O)C1c3ccc(O)c(O)c3OCC1(O)C2 (centres unmarked) [HAEMATOXYLIN]
IC50 [1, 15]: 37.9 µM

Molecule: COc1cc2c(NC3CCN(CC4CCCCC4)CC3)nc(N3CCCN(C(C)C)CC3)nc2cc1OCCCN1CCCCC1 [UNC0631]
IC50 [1, 14]: < 5 µM and 2.86 µM

Molecule: O=c1c2ccccc2[se]n1-c1ccccc1 [Ebselen]
IC50 [1, 15]: 27.5 µM

Molecule: CC(=O)[O][Hg][c]1ccccc1 [Phenylmercuric acetate]
IC50 ([1]; cell viability, listed as phenylmercuric acetate, read-out: IC50 values in HGC-27 cells): < 5 µM
IC50 [1, 14]: 4.05 µM

Molecule: N.N.[Cl][Pt][Cl] [cisplatin]
tumor weight / tumor growth [2]: modestly lower tumor weights
efficiency in killing cancer cells [3]: about 20%
IC50 [4]: < 20 µM
efficiency in killing cancer cells [5]: about 20%

STRN3–MST2 interaction in MBP pull-down [6]: able to disrupt
Molecule: Cc1ccc(C(=O)Nc2ccc(S(=O)(=O)[O-])c3cc(S(=O)(=O)[O-])cc(S(=O)(=O)[O-])c23)cc1NC(=O)c1cccc(NC(=O)Nc2cccc(C(=O)Nc3cc(C(=O)Nc4ccc(S(=O)(=O)[O-])c5cc(S(=O)(=O)[O-])cc(S(=O)(=O)[O-])c45)ccc3C)c2)c1.[Na+].[Na+].[Na+].[Na+].[Na+].[Na+] [Suramin Sodium Salt]
inhibition of HGC-27 cell growth / viability ([1]; result in words): not

Molecule: CN1C(=O)c2sccc2N(C)c2nc(Nc3ccc(S(N)(=O)=O)cc3)ncc21 [XMU-MP-1]
effect of co-treatment on cisplatin sensitivity [7]: triggered much more resistance to cisplatin

Molecule: COc1ccc(C(=O)O[C@H]2CC[C@@]3(C)[C@@H]4CC[C@H]5[C@]6(O)C[C@H](O)[C@@]7(O)[C@@H](CN8C[C@@H](C)CC[C@H]8[C@@]7(C)O)[C@]6(O)C[C@@]53O[C@]24O)cc1OC [Veratridine]
IC50 ([1]; Homo sapiens, HGC-27, read-out: IC50 values in HGC-27 cells): 15.7 µM

Kd [8]: 11.9 µM
Kd [9]: 20.7 µM
Kd [10]: 0.624 µM
B1: STRN3 (64–145) (domain or fragment, UniProt Q13033 64-145, looked up)
chain: TIPGILHYIQHEWARFEMERAHWEVERAELQARIAFLQGERKGQENLKKDLVRRIKMLEYALKQERAKYHKLKYGTELNQGD
notes: STRN3 (striatin-3), amino acid 64-145

binding result [11]: binds
binding result [12]: binds
B2: His-SUMO-tagged STRN3 (amino acid 64–145) (domain or fragment, UniProt Q13033 64-145, looked up)
chain: B1 chain
notes: STRN3 (striatin-3), amino acid 64-145; Used where the tag is named or used for capture: the GST and MBP pull-downs and the nickel chelate acceptor beads of the AlphaScreen; also called HS-STRN3; His-tagged STRN3

Kd [13]: 0.624 µM
B3: STRN3: recombinant His-SUMO-tagged STRN3 (amino acid 64–145), binding partner of PP2Aa and MST2 (protein, UniProt Q13033 64-145, looked up, fragment)
chain: B1 chain
modifications: His-SUMO tag
